Results taken from US6846845B2, “Heat shock protein inducer” (Eisai Co., Ltd., priority 2002, dated 2005).

Key:
Type in all cases: in vivo, rat
HSP70 = HSP70 induction in the heart after oral administration (Western blotting), Example 1
Method: Male Sprague-Dawley rats (220-250 g) were anesthetized with pentobarbital (20 mg/kg, i.p.). They were subjected to whole-body hyperthermia by soaking for 10 minutes in a bath in which the water temperature was maintained at 43° C. (Heat Stress Group), with their heads on pillows to avoid aspiration of water. rectal temperatures were measured as body temperatures rose throughout the whole-body hyperthermia.
(§1) An emulsion of 100% by weight of geranylgeranylacetone (GGA) with 5% by weight of gum arabic and 0.008% by weight of tocopherol was given orally to the rats described above. The oral dosages were 50 mg/kg, 100 mg/kg, 200 mg/kg and 400 mg/kg (GGA groups). […] The vehicle was administered orally to the Control Group.
To examine the time-dependent expression of HSP70, rats were killed by deep anesthesia with pentobarbital (50 mg/kg, i.v.) 6, 12, 24 and 48 hours after administration of the GGA or vehicle or 6, 12, 24 and 48 hours after heat stress.
(§2) Next, the hearts were removed from the killed rats and frozen in liquid nitrogen.
(§3) Western blotting was then performed (Maloyan A, Palmon A, Horowitz M. Heat acclimation increases the basal HSP70 level and alters its production dynamics during heat stress. Am J Physiol 1999; 276:R1506-R1515). The frozen hearts were homogenized with SDS (sodium dodecyl sulfate) buffer, centrifuged and boiled.
(§4) The total protein concentration of the myocardium was quantified by the Bradford method (Bradford M M. A rapid and sensitive method for quantitation of microgram quantities of protein utilizing the principle of protein-dye binding. Anal Biochem 1976; 72:248-254). The prepared hearts were then diluted in electrolyte buffer. Total protein in each heart was subjected to electrophoresis on 8.5% SDS-Polyacrylamide gel (SDS-PAGE), and transferred to a PVDF (polyvinylidene fluoride) membrane. After blocking with 0.5% nonfat milk, the PVDF membranes were incubated with antibodies. The proteins were detected by exposing the ECL cells with Hyperfilm (Amersham Pharmacia, Buckinghamshire, UK). Based on this, the amount of proteins on the immunoblots was quantified using National Institutes of Health (NIH) imaging software.

HSP27 = HSP27 induction in the heart after oral administration (Western blotting); conditions: oral 200 mg/kg, 24 hours after administration, FIG. 3(A)
Method: as §1, §2, §3
as §4, with “Total protein in each heart was subjected to electrophoresis on 8.5% SDS-Polyacrylamide gel (SDS-PAGE), and transferred to a PVDF (polyvinylidene fluoride) membrane. After blocking with 0.5% nonfat milk, the PVDF membranes were incubated with antibodies.” left out, “software. […]” for “software.”

HSP60 = HSP60 induction in the heart after oral administration (Western blotting); conditions: oral 200 mg/kg, 24 hours after administration, FIG. 3(B)
Method: as §1, §2, §3
as §4, with “Total protein in each heart was subjected to electrophoresis on 8.5% SDS-Polyacrylamide gel (SDS-PAGE), and transferred to a PVDF (polyvinylidene fluoride) membrane. After blocking with 0.5% nonfat milk, the PVDF membranes were incubated with antibodies.” left out, “software. […]” for “software.”

isolated perfused heart = experiment: Isolated perfused heart experiments (Langendorff, no-flow global ischemia/reperfusion), Example 1; conditions: for amount of creatine kinase (CK) released during reperfusion versus Control Group: 30 min reperfusion, FIG. 6
Method: As mentioned above, 24 hours after administration of 200 mg/kg of GGA or the vehicle, rats were heparinized (500 IU/kg, i.p.) and anesthetized with pentobarbital (50 mg/kg, i.p.).
Each heart was isolated and reperfused using the Langendorff method with Krebs-Henseleit buffer (pH 7.4, [in mM] 118 NaCl, 4.7 KCl, 2.5 CaCl2, 1.2 MgSO4, 1.2 KH2PO4, 25.0 Na2HCO3, 11.0 glucose) equilibrated with a 95% O2, 5% CO2 gas mixture at 36.5° C., 75 mmHg (1.0×10^4 Pa).
A water-filled latex balloon was inserted through the mitral orifice into the left ventricle, and the left ventricular end diastolic pressure (LVEDP) was adjusted to 0-5 mmHg (0-667 Pa). During the first 10 minutes of constant pressure reperfusion, the perfusion flow rate was determined for each heart, and the hearts were then perfused at a determined perfusion rate using a microtube pump, during which time each heart was covered with water-jacketed glassware and humidity was maintained at 90% or more.
Normothermic no-flow global ischemia was performed for 20, 40 and 60 minutes, followed by reperfusion for 30 minutes. The coronary effluent from the 30-minute reperfusion period was collected for measurement of released creatine kinase (CK). The ratio of released CK to heart weight was analyzed by unpaired t-test.
The peak position and negative first derivaties of left ventricular pressure (dP/dt max and dP/dt min) were monitored using a pressure transducer. Left ventricular developed pressure (LVDP) was defined as the difference between left ventricular systolic and diastolic pressure. Coronary perfusion pressure (CPP) was calculated as the hydraulic pressure measured at the level of aortic cannulation. Changes in LVDP, CPP and dP/dt were analyzed by two-way analysis of variance (ANOVA), followed by the Bonferroni/Dunn test.
The LVDP, CPP and electrocardiogram were continuously recorded on a polygraph recorder (WS-681G, Nihon Koden, Tokyo), and stored on a PCM data recorder (RD-111T, TEAC, Tokyo) for later analysis.

PKCδ = experiment: Translocation of PKCδ in particulate and cytosolic heart fractions (Western immunoblotting); conditions: 24 h after GGA 200 mg/kg oral or vehicle; chelerythrine 5 mg/kg i.v. pretreatment, FIG. 10
[1] = oral, 24 hours after administration, FIG. 2

With `CC(=O)CCC=C(C)CCC=C(C)CCC=C(C)CCC=C(C)C` [GGA, 6, 10, 14, 18-tetramethyl-5,9, 13, 17-nonadecatetraen-2-one] the “detected (induced) amount of HSP70 in the heart versus dosage” value (HSP70; oral 0-400 mg/kg, hearts removed 24 hours after administration, FIG. 2) was “increased as the dosage increased”, the “detected amount of HSP70 in the heart after 48 hours” value (HSP70; oral 200 mg/kg, 48 hours after administration, FIG. 1) was “decreased” and the “time at which the detected (induced) amount of HSP70 peaked” value (HSP70; oral 200 mg/kg, FIG. 1) was 24 h. For the same molecule, the “time from which HSP70 was detected in the heart” value (HSP70; oral 200 mg/kg, FIG. 1) was “about 6 hours”, the “detected amount of HSP70 above 400 mg/kg” value (HSP70; [1]) was “No increase in detected amount was seen” and the “dosage at which HSP70 induction peaked” value (HSP70; [1]) was 200 mg/kg. For the same molecule, the “HSP27 expression versus vehicle” value (HSP27) was “no obvious difference”, the “HSP60 expression versus control group” value (HSP60) was “significantly decreased” and the “LVDP and dP/dt during reperfusion versus Control Group” value (isolated perfused heart; 24 h after oral 200 mg/kg, printed 'after about 20-40 minutes of reperfusion', FIG. 5) was “remarkably better”. The “functional recovery (LVDP, dP/dt) versus Control Group” value (isolated perfused heart; 24 h after oral 200 mg/kg, printed 'after about 60 minutes of reperfusion', FIG. 5) was “no great difference”, the “amount of creatine kinase (CK) released during reperfusion versus Control Group” value (isolated perfused heart; ischemic period 20 or 40 minutes) was “much less” and the “amount of creatine kinase (CK) released during reperfusion versus Control Group” value (isolated perfused heart; ischemic period 60 minutes) was “no great difference”. The “PKCδ in the particulate fraction / particulate/cytosol ratio versus CNT group” value (PKCδ) was “significant increase”.
